# Experimental data taken from US8822407B2, “Preparation of conjugates comprising adenine derivatives and allergenic proteins and their use for specific immunotherapy of allengenic diseases” (Universita' Degli Studi di Firenze, priority 2010, dated 2014).
# Tested on: allergen-specific T cell lines
# Experiment: Functional phenotype of allergen-specific T cell lines
# Assay type: cell-based, human
# Conditions: SA-26E 0.085 μg/ml, alone or mixed with nDer p2 10 μg/ml
# Description: Mononuclear cells from 10 atopic donors with sensitization towards Dermatophagoides pteronyssinus have been isolated by density gradient and 1×10^6 cells cultured in 2 ml complete medium plus 5% autologous serum in the presence of DP or nDer p2 allergens or their respective conjugates (DP-conj or nDer p2-conj) (all at 10 μg/ml) in 24 flat-bottomed plates (Costar). […] After 6 d incubation and addition of rIL-2 (Proleukin) (25 UI/ml), T cell blasts are further expanded by the addition of medium, fresh 5% autologous serum and 25 UI/ml rIL-2 every three days. After 15 d culture, T cell blasts from single cultures are collected, washed with sterile PBS, counted and used to assess allergen specificity, phenotype and function.
# To assess allergen-specificity, 1×10^5 T cell blasts are cultured in 96 U-bottomed plates in 0.2 ml final volume in medium plus 5% autologous serum, 1×10^5 autologous irradiated (9000 R) mononuclear cells as APCs, DP or nDer p2 (10 μg/ml) and, after 3 d incubation, tritiated thymidine (3HTdR) (Amersham) is added. After further 16 hr incubation, single cultures are transferred on paper filters through the use of an Harvester apparatus (Tomtec) and radioactivity measured in a β-counter. […]
compound,measurement,value
"Nc1nc(SCCCC(=O)ON2C(=O)CCC2=O)nc2c1nc(O)n2Cc1ccccc1 [SA-26E, 4-(6-Amino-9-benzyl-8-hydroxy-9H-purin-2-ylsulfanyl)-butyric acid 2,5-dioxo-pyrrolidin-1-yl ester]",modification of the cellular phenotype of allergen-specific T cells (TH2 towards TH1/TH0),inactive
